Measured values: ChEMBL document CHEMBL4673363, “Highly potent, broadly active antifungal agents for the treatment of invasive fungal infections” (Bioorg Med Chem Lett, 2021)
≈ marks a conversion by molar mass, not a printed value.

What was measured:
[1] = Antifungal activity against Fusarium falciforme ATCC 3636; type: functional
Mucor circinelloides = experiment: Antifungal activity against Mucor circinelloides ATCC 26579; type: functional
[2] = Antifungal activity against Mucor ramosissimus ATCC 90286; type: functional
Aspergillus fumigatus = experiment: Antifungal activity against Aspergillus fumigatus ATCC 3626; type: functional
Fusarium solani = experiment: Antifungal activity against Fusarium solani ATCC 58877; type: functional
Aspergillus flavus = experiment: Antifungal activity against Aspergillus flavus ATCC 3631; type: functional
Rhizopus = experiment: Antifungal activity against Rhizopus assessed as inhibition of fungal growth by broth dilution assay; type: functional, organism-based
Aspergillus = experiment: Antifungal activity against Aspergillus assessed as inhibition of fungal growth by broth dilution assay; type: functional, organism-based
Candida [3] = experiment: Antifungal activity against Candida assessed as inhibition of fungal growth by broth dilution assay; type: functional, organism-based
Trichophyton = experiment: Antifungal activity against Trichophyton after 48 hrs by CLSI-based broth microdilution method; type: functional
Candida [4] = experiment: Antifungal activity against Candida after 48 hrs by CLSI-based broth microdilution method; type: functional
CYP3A = experiment: Inhibition of CYP3A in human liver microsomes at 10 uM using testosterone as substrate measured for 10 to 30 mins in presence of NADPH by LC-MS/MS analysis relative to control; type: ADME; conditions: probe testosterone, time 10-30 min
[5] = Protein binding in mouse plasma at 1 uM measured after 4 hrs by LC-MS/MS based rapid equilibrium dialysis method; type: ADME, cell-free; conditions: read-out: PPB (converted)
[6] = Selectivity index, ratio of CC50 for mouse 3T3 cells to MIC for candida albicans; type: toxicity; conditions: read-out: Selectivity Index
hERG (KCNH2) = hERG (KCNH2) (Homo sapiens, UniProt Q12809); experiment: Inhibition of human ERG at 10 uM by Qpatch method relative to control
Chain of hERG (KCNH2) (Q12809 whole entry): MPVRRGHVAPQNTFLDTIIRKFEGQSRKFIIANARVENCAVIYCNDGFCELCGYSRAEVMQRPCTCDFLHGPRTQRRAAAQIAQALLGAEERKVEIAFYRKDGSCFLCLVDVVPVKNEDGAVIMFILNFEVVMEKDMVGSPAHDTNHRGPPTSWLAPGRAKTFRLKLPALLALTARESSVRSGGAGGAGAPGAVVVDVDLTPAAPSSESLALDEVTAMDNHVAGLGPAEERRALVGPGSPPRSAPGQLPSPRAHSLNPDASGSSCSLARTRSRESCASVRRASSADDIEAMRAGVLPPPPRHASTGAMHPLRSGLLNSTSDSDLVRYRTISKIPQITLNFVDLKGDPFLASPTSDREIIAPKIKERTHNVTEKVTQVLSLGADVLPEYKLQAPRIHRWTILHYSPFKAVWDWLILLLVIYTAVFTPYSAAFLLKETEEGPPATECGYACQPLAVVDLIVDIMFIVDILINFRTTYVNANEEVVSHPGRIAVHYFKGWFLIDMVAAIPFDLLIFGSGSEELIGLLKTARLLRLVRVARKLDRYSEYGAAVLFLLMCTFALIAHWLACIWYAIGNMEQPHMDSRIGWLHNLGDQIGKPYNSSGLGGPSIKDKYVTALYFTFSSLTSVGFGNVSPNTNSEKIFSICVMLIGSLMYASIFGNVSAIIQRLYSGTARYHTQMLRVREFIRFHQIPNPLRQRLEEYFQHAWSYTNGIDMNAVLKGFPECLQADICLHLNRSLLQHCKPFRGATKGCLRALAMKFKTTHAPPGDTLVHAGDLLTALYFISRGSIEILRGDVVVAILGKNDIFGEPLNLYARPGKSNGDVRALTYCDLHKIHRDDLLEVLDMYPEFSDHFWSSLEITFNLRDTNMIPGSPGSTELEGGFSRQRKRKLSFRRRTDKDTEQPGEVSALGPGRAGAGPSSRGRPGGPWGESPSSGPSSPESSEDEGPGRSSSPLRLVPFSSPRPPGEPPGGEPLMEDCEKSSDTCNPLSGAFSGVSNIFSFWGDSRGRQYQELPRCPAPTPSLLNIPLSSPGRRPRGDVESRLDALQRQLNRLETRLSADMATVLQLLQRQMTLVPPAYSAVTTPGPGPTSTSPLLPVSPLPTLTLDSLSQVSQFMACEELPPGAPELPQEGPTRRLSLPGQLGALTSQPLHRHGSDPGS

CYP1A2 = biological target: T1, CYP1A2 (Homo sapiens, UniProt P05177); experiment: Inhibition of CYP1A2 in human liver microsomes at 10 uM using phenacetin as substrate measured for 10 to 30 mins in presence of NADPH by LC-MS/MS analysis relative to control; type: ADME; conditions: probe phenacetin, time 10-30 min
T1 sequence (P05177 whole entry): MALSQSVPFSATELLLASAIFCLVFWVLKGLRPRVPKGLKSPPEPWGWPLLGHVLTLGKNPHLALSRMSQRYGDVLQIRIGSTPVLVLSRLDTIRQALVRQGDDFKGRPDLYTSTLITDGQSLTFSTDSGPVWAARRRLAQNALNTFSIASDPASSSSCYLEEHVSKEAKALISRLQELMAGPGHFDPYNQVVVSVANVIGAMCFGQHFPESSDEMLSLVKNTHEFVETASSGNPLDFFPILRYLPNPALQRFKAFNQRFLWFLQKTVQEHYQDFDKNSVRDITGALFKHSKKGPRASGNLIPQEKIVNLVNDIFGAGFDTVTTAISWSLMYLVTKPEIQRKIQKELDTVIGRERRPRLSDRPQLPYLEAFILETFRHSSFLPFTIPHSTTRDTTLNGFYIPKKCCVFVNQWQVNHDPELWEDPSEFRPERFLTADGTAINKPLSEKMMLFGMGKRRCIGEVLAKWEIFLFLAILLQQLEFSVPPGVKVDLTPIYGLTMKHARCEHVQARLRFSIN

[7] = Aqueous solubility of compound at pH 7.4; type: physicochemical
[8] = Selectivity index, ratio of CC50 for human HepG2 cells to MIC for candida albicans; type: toxicity; conditions: read-out: Selectivity Index
CYP2C19 = CYP2C19 (Homo sapiens, UniProt P33261); experiment: Inhibition of CYP2C19 in human liver microsomes at 10 uM using S-mephenytoin as substrate measured for 10 to 30 mins in presence of NADPH by LC-MS/MS analysis relative to control; type: ADME; conditions: probe S-mephenytoin, time 10-30 min
Chain of CYP2C19 (P33261 whole entry): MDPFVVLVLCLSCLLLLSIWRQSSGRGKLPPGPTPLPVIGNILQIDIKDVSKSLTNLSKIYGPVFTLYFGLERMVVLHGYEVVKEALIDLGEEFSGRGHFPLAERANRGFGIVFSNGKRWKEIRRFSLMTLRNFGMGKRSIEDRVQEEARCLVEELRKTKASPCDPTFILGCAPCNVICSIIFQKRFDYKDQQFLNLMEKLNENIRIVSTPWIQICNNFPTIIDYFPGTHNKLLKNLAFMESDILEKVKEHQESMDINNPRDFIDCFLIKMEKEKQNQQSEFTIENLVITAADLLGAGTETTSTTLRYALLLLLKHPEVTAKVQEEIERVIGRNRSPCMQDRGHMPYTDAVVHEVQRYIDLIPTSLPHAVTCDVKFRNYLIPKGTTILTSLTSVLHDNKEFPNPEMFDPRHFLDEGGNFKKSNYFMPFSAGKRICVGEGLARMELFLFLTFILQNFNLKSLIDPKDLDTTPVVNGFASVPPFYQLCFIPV

[9] = Cytotoxicity against human HepG2 cells assessed as reduction in metabolic activity measured after 24 hrs; type: ADME, cell-based
[10] = Cytotoxicity against mouse 3T3 cells assessed as reduction in metabolic activity measured after 24 hrs; type: ADME, cell-based
[11] = Metabolic stability in mouse liver microsomes assessed as half life measured up to 60 mins in presence of NADPH by LC-MS/MS analysis; type: ADME, Microsome
Candida albicans = experiment: Antifungal activity against Candida albicans clinical isolate; type: functional
[12] = Solubility in 10% 2-hydroxypropyl-B-cyclodextrin; type: physicochemical

| MIC [1] [µg/mL] | MIC (Mucor circinelloides) [µg/mL] | MIC [2] [µg/mL] | MIC (Aspergillus fumigatus) [µg/mL] | MIC (Fusarium solani) [µg/mL] | MIC (Aspergillus flavus) [µg/mL] | Compound | further results |
| --- | --- | --- | --- | --- | --- | --- | --- |
| 0.78 (≈ 1.53 µM) | 1.56 (≈ 3.06 µM) | 6.25 (≈ 12.3 µM) | 0.78 (≈ 1.53 µM) | 0.2 (≈ 0.392 µM) | 0.39 (≈ 0.765 µM) | Cc1cc(C2=CCN(C(=N)N)CC2)ccc1-c1nnc(-c2ccc(C3=CCN(C(=N)N)CC3)cc2C)n1C | – |
| 0.78 (≈ 1.61 µM) | > 100 | > 100 | 1.56 (≈ 3.21 µM) | 0.78 (≈ 1.61 µM) | 1.56 (≈ 3.21 µM) | Cn1c(-c2ccc(C3CCN(C(=N)N)CC3)cc2)nnc1-c1ccc(C2CCN(C(=N)N)CC2)cc1 | – |
| 0.2 (≈ 0.414 µM) | 12.5 (≈ 25.9 µM) | 25 (≈ 51.8 µM) | 0.78 (≈ 1.62 µM) | 0.78 (≈ 1.62 µM) | 0.31 (≈ 0.642 µM) | Cc1cc(C2=CCN(C(=N)N)CC2)ccc1-c1nnc(-c2ccc(C3=CCN(C(=N)N)CC3)cc2)o1 | – |
| < 0.1 | 0.78 (≈ 1.62 µM) | 6.25 (≈ 13 µM) | 0.2 (≈ 0.416 µM) | 3.13 (≈ 6.51 µM) | 0.39 (≈ 0.811 µM) | Cn1c(-c2ccc(C3=CCN(C(=N)N)CC3)cc2)cnc1-c1ccc(C2=CCN(C(=N)N)CC2)cc1 | – |
| < 0.012 | 0.2 (≈ 0.404 µM) | 0.78 (≈ 1.57 µM) | < 0.012 | < 0.012 | < 0.012 | CCn1c(-c2ccc(C3=CCN(C(=N)N)CC3)cc2)nnc1-c1ccc(C2=CCN(C(=N)N)CC2)cc1 | – |
| 0.2 (≈ 0.364 µM) | 0.39 (≈ 0.709 µM) | 1.56 (≈ 2.84 µM) | 0.39 (≈ 0.709 µM) | 0.39 (≈ 0.709 µM) | 0.78 (≈ 1.42 µM) | N=C(N)N1CC=C(c2ccc(-c3nnc(-c4ccc(C5=CCN(C(=N)N)CC5)cc4)n3C3CCCCC3)cc2)CC1 | – |
| 0.024 (≈ 0.0498 µM) | 0.2 (≈ 0.415 µM) | 0.39 (≈ 0.81 µM) | 0.1 (≈ 0.208 µM) | 0.024 (≈ 0.0498 µM) | 0.1 (≈ 0.208 µM) | Cn1c(-c2ccc(C3=CCN(C(=N)N)CC3)cc2)nnc1-c1ccc(C2=CCN(C(=N)N)CC2)cc1 | – |
| 0.39 (≈ 0.8 µM) | > 100 | > 100 | 0.39 (≈ 0.8 µM) | 1.56 (≈ 3.2 µM) | 0.78 (≈ 1.6 µM) | Cn1c(-c2ccc(N3CCN(C(=N)N)CC3)cc2)nnc1-c1ccc(N2CCN(C(=N)N)CC2)cc1 | – |
| – | – | – | – | – | – | NC(N)=N/N=C/c1ccc(OCc2ccc(Cl)c(Cl)c2)cc1 | IC50 (Rhizopus): > 12 µM; IC50 (Aspergillus): > 12 µM; IC50 (Candida [3]): > 12 µM |
| 3.13 (≈ 3.39 µM) | 1.56 (≈ 1.69 µM) | 3.13 (≈ 3.39 µM) | 3.13 (≈ 3.39 µM) | 3.13 (≈ 3.39 µM) | 3.13 (≈ 3.39 µM) | C[C@@H]1[C@H](O)[C@@H](C)/C=C/C=C/C=C/C=C/C=C/C=C/C=C/[C@H](O[C@@H]2O[C@H](C)[C@@H](O)[C@H](N)[C@@H]2O)C[C@@H]2O[C@](O)(C[C@@H](O)C[C@@H](O)[C@H](O)CC[C@@H](O)C[C@@H](O)CC(=O)O[C@H]1C)C[C@H](O)[C@H]2C(=O)O [AMPHOTERICIN B] | – |
| 0.05 (≈ 0.0951 µM) | 0.39 (≈ 0.742 µM) | 1.56 (≈ 2.97 µM) | 0.1 (≈ 0.19 µM) | 0.05 (≈ 0.0951 µM) | 0.2 (≈ 0.38 µM) | COCCn1c(-c2ccc(C3=CCN(C(=N)N)CC3)cc2)nnc1-c1ccc(C2=CCN(C(=N)N)CC2)cc1 | – |
| 0.78 (≈ 1.53 µM) | 6.25 (≈ 12.3 µM) | 50 (≈ 98.1 µM) | 0.78 (≈ 1.53 µM) | 0.78 (≈ 1.53 µM) | 1.56 (≈ 3.06 µM) | Cc1cc(-c2nnc(-c3ccc(C4=CCN(C(=N)N)CC4)c(C)c3)n2C)ccc1C1=CCN(C(=N)N)CC1 | – |
| 0.39 (≈ 0.832 µM) | 100 (≈ 213 µM) | 100 (≈ 213 µM) | 3.13 (≈ 6.68 µM) | 6.25 (≈ 13.3 µM) | 3.13 (≈ 6.68 µM) | N=C(N)N1CC=C(c2ccc(-c3nnc(-c4ccc(C5=CCN(C(=N)N)CC5)cc4)o3)cc2)CC1 | – |
| – | – | – | – | – | – | CC(C)(C)c1cc(C(C)(C)C)c2[nH]c(C(C)(C)C)c(C[C@H](NC(=O)[C@@H](N)CCCNC(=N)N)C(=O)N[C@@H](CCCNC(=N)N)C(=O)NCCc3ccccc3)c2c1 [LTX-109] | MIC (Trichophyton): 8 µg/mL (≈ 10.2 µM); MIC (Candida [4]): 4 µg/mL (≈ 5.08 µM) |
| 0.39 (≈ 0.808 µM) | 25 (≈ 51.8 µM) | 25 (≈ 51.8 µM) | > 25 | 1.56 (≈ 3.23 µM) | 6.25 (≈ 13 µM) | Cc1cc(-c2nnc(-c3ccc(C4=CCN(C(=N)N)CC4)cc3)o2)ccc1C1=CCN(C(=N)N)CC1 | – |
| 0.2 (≈ 0.404 µM) | 3.13 (≈ 6.32 µM) | 6.25 (≈ 12.6 µM) | 0.2 (≈ 0.404 µM) | 0.2 (≈ 0.404 µM) | 0.39 (≈ 0.787 µM) | Cc1cc(C2=CCN(C(=N)N)CC2)ccc1-c1nnc(-c2ccc(C3=CCN(C(=N)N)CC3)cc2)n1C | – |
| 0.1 (≈ 0.179 µM) | 1.56 (≈ 2.8 µM) | 3.13 (≈ 5.61 µM) | 0.39 (≈ 0.699 µM) | 0.05 (≈ 0.0897 µM) | 1.56 (≈ 2.8 µM) | N=C(N)N1CC=C(c2ccc(-c3nnc(-c4ccc(C5=CCN(C(=N)N)CC5)cc4)n3Cc3ccccc3)cc2)CC1 | – |
| > 100 | > 100 | > 100 | > 100 | > 100 | > 100 | Cn1c(-c2ccc(CNC(=N)N)cc2)cnc1-c1ccc(CNC(=N)N)cc1 | – |
| – | – | – | – | – | – | Cc1ccc(Oc2ccccc2-c2csc(N=C3NCCCN3)n2)c(C)c1 [ABAFUNGIN] | MIC (Aspergillus; time 48 hrs): 0.5 µg/mL (≈ 1.32 µM); MIC (Candida [3]): 0.5 µg/mL (≈ 1.32 µM) |
| 0.2 (≈ 0.364 µM) | 0.78 (≈ 1.42 µM) | 3.13 (≈ 5.69 µM) | 0.2 (≈ 0.364 µM) | 0.2 (≈ 0.364 µM) | 0.39 (≈ 0.71 µM) | Cn1c(-c2ccc(C3=CCN(C(=N)N)CC3)cc2)nnc1-c1ccc(C2=CCN(C(=N)N)CC2)c(C(F)(F)F)c1 | – |
| 0.05 (≈ 0.11 µM) | 0.78 (≈ 1.72 µM) | 6.25 (≈ 13.8 µM) | 0.2 (≈ 0.441 µM) | 0.2 (≈ 0.441 µM) | 0.39 (≈ 0.86 µM) | Cn1c(-c2ccc(C3=CCN(C(=N)N)C3)cc2)nnc1-c1ccc(C2=CCN(C(=N)N)C2)cc1 | – |
| < 0.1 | 0.2 (≈ 0.392 µM) | 0.78 (≈ 1.53 µM) | < 0.1 | < 0.1 | < 0.1 | CC(C)n1c(-c2ccc(C3=CCN(C(=N)N)CC3)cc2)nnc1-c1ccc(C2=CCN(C(=N)N)CC2)cc1 | inhibition at 10 µM (CYP3A): 0%; fraction unbound at 4 h, 1 µM [5]: 0.027; selectivity ratio [6]: > 1000; inhibition at 10 µM (hERG (KCNH2)): 21.6%; inhibition at 10 µM (CYP1A2): 0%; solubility [7]: 27 µg/mL (≈ 53 µM); selectivity ratio [8]: > 1000; inhibition at 10 µM (CYP2C19): 10.3%; CC50 at 24 h [9]: 751 µM; CC50 at 24 h [10]: 297 µM; half-life [11]: > 1 h; MIC50 (Candida albicans): 0.1 µg/mL (≈ 0.196 µM); solubility [12]: ≤ 5000 µg/mL |

| Compound | MIC [1] [µg/mL] | MIC (Mucor circinelloides) [µg/mL] | MIC [2] [µg/mL] | MIC (Aspergillus fumigatus) [µg/mL] | MIC (Fusarium solani) [µg/mL] | MIC (Aspergillus flavus) [µg/mL] | further results |
| --- | --- | --- | --- | --- | --- | --- | --- |
| CC[C@@H]([C@H](C)O)n1ncn(-c2ccc(N3CCN(c4ccc(OC[C@@H]5CO[C@@](Cn6cncn6)(c6ccc(F)cc6F)C5)cc4)CC3)cc2)c1=O [POSACONAZOLE] | 0.78 (≈ 1.11 µM) | 1.56 (≈ 2.23 µM) | 0.78 (≈ 1.11 µM) | 0.39 (≈ 0.557 µM) | 1.56 (≈ 2.23 µM) | 0.78 (≈ 1.11 µM) | – |
